{"source": "patent US8569247B2", "about": "(priority 2009, dated 2013)", "key": {"[1]": {"test_system": "CaCo-2 cells", "test": "Cellular uptake of crocin and crocetin in CaCo-2 cells (cellular content)", "assay_type": "in vitro ADME", "settings": "for HPLC peaks in the cells: 10 mg Gardenia extract/100 mL medium; for Crocetin (HPLC) concentration in the cells: 10 mg crocetin/100 mL medium", "protocol": "(§1) CaCo-2 cells were incubated with 10 mg Gardenia extract and 10 mg crocetin/100 mL medium. The test compounds were dissolved in methanol and then diluted with incubation medium. Incubations were performed at 37° C. for 30, 60 and 120 minutes.\nCells were grown in 75 cm^2 culture-flasks (T75) and sub-cultured after one week (every other day washed with PBS buffer, removed with trypsin and transferred to a new culture flask).\nThe cells were washed with PBS buffer, incubated with 4 ml medium containing the suspended samples for 30, 60 or 120 minutes.\nAfter the corresponding incubation time, the cells were washed with PBS buffer/MeOH=70/30 and removed using 1 ml of MeOH. Cells were sonicated 3 times for 30 seconds, centrifuged for 10 min and the pellets were discarded. The supernatant was used as sample for HPLC and UV/VIS-analysis.\n(§2) An appropriate amount of standard was transferred into a 10 mL flask and dissolved in 3 mL methanol and filled to the mark with water. Dilutions were prepared in mobile phase.\n(§3) Quantification was performed by external standardization after linear regression analysis."}, "[2]": {"test": "Content of test solution before and after incubation (stability under CaCo-2 test conditions)", "assay_type": "in vitro ADME", "settings": "for Area-% Fingerprint of test solution after 120 minutes / Area-% Fingerprint of test solution prior to incubation: Gardenia extract test solution", "protocol": "as §1\nThe content of crocetin related esters and crocetin in the sample used for incubation testing was determined.\nTable 7 provides the content of test solution prior to incubation:\nTable 8 provides the corresponding data for the test solution obtained after 120 minutes.\nas §2, §3"}, "[3]": {"biological_target": "human acetylcholinesterase (Homo sapiens, UniProt P22303)", "sequence (P22303 32-614)": "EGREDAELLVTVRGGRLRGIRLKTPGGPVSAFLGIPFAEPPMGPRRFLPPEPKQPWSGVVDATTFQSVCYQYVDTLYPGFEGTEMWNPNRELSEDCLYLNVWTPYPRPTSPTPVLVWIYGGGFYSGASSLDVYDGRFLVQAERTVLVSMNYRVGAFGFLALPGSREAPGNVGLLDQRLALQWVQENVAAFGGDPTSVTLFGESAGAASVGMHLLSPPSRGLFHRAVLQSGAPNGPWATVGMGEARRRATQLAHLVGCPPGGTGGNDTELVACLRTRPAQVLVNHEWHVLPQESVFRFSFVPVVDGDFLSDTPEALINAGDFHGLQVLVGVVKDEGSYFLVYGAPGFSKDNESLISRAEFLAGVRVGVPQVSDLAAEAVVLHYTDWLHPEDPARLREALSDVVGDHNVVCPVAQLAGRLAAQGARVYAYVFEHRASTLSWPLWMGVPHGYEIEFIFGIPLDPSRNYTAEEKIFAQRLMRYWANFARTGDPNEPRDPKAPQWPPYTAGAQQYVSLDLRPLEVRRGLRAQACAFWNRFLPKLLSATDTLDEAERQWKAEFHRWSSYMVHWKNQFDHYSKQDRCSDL", "test": "biochemical", "assay_type": "biochemical", "settings": "for inhibition at 500 µg/mL: read-out: Inhibition of AChE activity %; for activity at 500 µg/mL: read-out: AChE activity %", "protocol": "Inhibitor solution: 10 mg of the corresponding samples were respectively dissolved in 1 ml methanol.\nChromogen solution: 0.1 M Sodium phosphate buffer (pH=8, NaOH) was mixed with solution A at a ratio of 30:1.\nSolution A: 39.6 mg 5,5′-dithio-bis[2-nitrobenzoic acid] and 15.0 mg NaHCO3 were weighed into a 10 ml flask and filled to the mark with 0.1 M Sodium-phosphate buffer (pH=7, NaOH).\nEnzyme solution: A solution of human acetylcholinesterase containing 70 IU enzyme activity/ml H2O was prepared.\nSubstrate solution: 115.7 mg acetylthiocholine-iodide was weighed into a 10 ml flask and filled to the mark with H2O.\n10 μl inhibitor solution was mixed with 185 μl chromogen solution and 10 μl enzyme solution. The solution was incubated for 10 minutes at room temperature with shaking. […] substrate solution was added and the increase in absorption at 412 nm was recorded until no more increase was observed (3-5 minutes)."}, "[4]": {"test_system": "CaCo-2 cells", "test": "CaCo-2 uptake trial extended with gardenia hydrolysate (%-uptake by HPLC/UV peak areas)", "assay_type": "in vitro ADME", "settings": "sample 20 mg/100 ml; proportion on overall absorption", "experimental": "The tests were performed in replicate and the results are expressed as %-uptake based on peak areas measured by HPLC/UV."}, "[5]": {"settings": "stated as known property; cited from earlier work"}, "[6]": {"test": "Solubility in water / aqueous alkaline solution", "assay_type": "physicochemical", "settings": "found by the applicant"}, "[7]": {"settings": "after 120 minutes incubation at 37° C."}, "[8]": {"settings": "sample 0.50 mg/ml, Neg Control = 0.0"}, "[9]": {"settings": "sample 0.50 mg/ml, Neg Control = 100.0"}}, "note": "Where two headings read alike, the source gives them in different places.", "data": [{"compound": "CC(=C/C=C/C=C(C)/C=C/C=C(/C)C(=O)O[C@@H]1O[C@H](CO[C@@H]2O[C@H](CO)[C@@H](O)[C@H](O)[C@H]2O)[C@@H](O)[C@H](O)[C@H]1O)/C=C/C=C(\\C)C(=O)O[C@@H]1O[C@H](CO[C@@H]2O[C@H](CO)[C@@H](O)[C@H](O)[C@H]2O)[C@@H](O)[C@H](O)[C@H]1O", "note": "(relative stereo) [DGCC, digentobiosyl-(cis)crocetin]", "values": [{"measurement": "HPLC peaks in the cells", "setting": "[1]; time 0 min", "value": "not detected"}, {"measurement": "HPLC peaks in the cells", "setting": "[1]; time 30 min", "value": "not detected"}, {"measurement": "HPLC peaks in the cells", "setting": "[1]; time 60 min", "value": "not detected"}, {"measurement": "HPLC peaks in the cells", "setting": "[1]; time 120 min", "value": "not detected"}, {"measurement": "Area-% Fingerprint of test solution after 120 minutes", "setting": "[2]; [7]", "value": 15.2, "unit": "Area-%"}, {"measurement": "Area-% Fingerprint of test solution prior to incubation", "setting": "[2]; prior to incubation", "value": 16.6, "unit": "Area-%"}]}, {"compound": "CC(/C=C/C=C(\\C)C(=O)O[C@@H]1O[C@H](CO[C@@H]2O[C@H](CO)[C@@H](O)[C@H](O)[C@H]2O)[C@@H](O)[C@H](O)[C@H]1O)=C\\C=C\\C=C(C)\\C=C\\C=C(/C)C(=O)O[C@@H]1O[C@H](CO[C@@H]2O[C@H](CO)[C@@H](O)[C@H](O)[C@H]2O)[C@@H](O)[C@H](O)[C@H]1O", "note": "(relative stereo) [DGTC, digentobiosyl-(trans)crocetin]", "values": [{"measurement": "HPLC peaks in the cells", "setting": "[1]; time 0 min", "value": "not detected"}, {"measurement": "HPLC peaks in the cells", "setting": "[1]; time 30 min", "value": "not detected"}, {"measurement": "HPLC peaks in the cells", "setting": "[1]; time 60 min", "value": "not detected"}, {"measurement": "HPLC peaks in the cells", "setting": "[1]; time 120 min", "value": "not detected"}, {"measurement": "Area-% Fingerprint of test solution after 120 minutes", "setting": "[2]; [7]", "value": 43.4, "unit": "Area-%"}, {"measurement": "Area-% Fingerprint of test solution prior to incubation", "setting": "[2]; prior to incubation", "value": 45.3, "unit": "Area-%"}]}, {"compound": "CC(/C=C/C=C(\\C)C(=O)O)=C\\C=C\\C=C(C)\\C=C\\C=C(/C)C(=O)O[C@@H]1O[C@H](CO[C@@H]2O[C@H](CO)[C@@H](O)[C@H](O)[C@H]2O)[C@@H](O)[C@H](O)[C@H]1O", "note": "(relative stereo) [GTC, gentobisyl-(trans)crocetin]", "values": [{"measurement": "HPLC peaks in the cells", "setting": "[1]; time 0 min", "value": "not detected"}, {"measurement": "HPLC peaks in the cells", "setting": "[1]; time 30 min", "value": "not detected"}, {"measurement": "HPLC peaks in the cells", "setting": "[1]; time 60 min", "value": "not detected"}, {"measurement": "HPLC peaks in the cells", "setting": "[1]; time 120 min", "value": "not detected"}, {"measurement": "Area-% Fingerprint of test solution after 120 minutes", "setting": "[2]; [7]", "value": 10.3, "unit": "Area-%"}, {"measurement": "Area-% Fingerprint of test solution prior to incubation", "setting": "[2]; prior to incubation", "value": 9.7, "unit": "Area-%"}]}, {"compound": "CC(/C=C/C=C(\\C)C(=O)O)=C\\C=C\\C=C(C)\\C=C\\C=C(/C)C(=O)O", "note": "[Crocetin, 8,8′-Diapo-ψ,ψ-carotenedioic acid, reference compound]", "values": [{"measurement": "Crocetin (HPLC) concentration in the cells", "setting": "[1]; time 0 min", "value": "BLD (BLD = <0.01 mg/100 ml)"}, {"measurement": "Crocetin (HPLC) concentration in the cells", "setting": "[1]; time 30 min", "value": "BLD (BLD = <0.01 mg/100 ml)"}, {"measurement": "Crocetin (HPLC) concentration in the cells", "setting": "[1]; time 60 min", "value": "BLD (BLD = <0.01 mg/100 ml)"}, {"measurement": "Crocetin (HPLC) concentration in the cells", "setting": "[1]; time 120 min", "value": "BLD (BLD = <0.01 mg/100 ml)"}, {"measurement": "inhibition at 500 µg/mL", "setting": "[3]; [8]", "value": 7.5, "unit": "%"}, {"measurement": "activity at 500 µg/mL", "setting": "[3]; [9]", "value": 92.5, "unit": "%"}, {"measurement": "% uptake of crocetin", "setting": "[4]", "value": 0.53, "unit": "%"}, {"measurement": "content of test solution after 120 minutes", "setting": "[2]; [7]", "value": 9.77, "unit": "mg/100 ml"}, {"measurement": "content of test solution prior to incubation", "setting": "[2]; prior to incubation, incubation medium", "value": 9.82, "unit": "mg/100 ml"}, {"measurement": "solubility in aqueous alkaline solution", "setting": "[5]", "value": "soluble"}, {"measurement": "solubility in water", "setting": "[5]", "value": "insoluble in water"}]}, {"compound": "CC(/C=C/C=C(\\C)C(=O)O[C@@H]1O[C@H](CO[C@@H]2O[C@H](CO)[C@@H](O)[C@H](O)[C@H]2O)[C@@H](O)[C@H](O)[C@H]1O)=C\\C=C\\C=C(C)\\C=C\\C=C(/C)C(=O)O[C@@H]1O[C@H](CO[C@@H]2O[C@H](CO)[C@@H](O)[C@H](O)[C@H]2O)[C@@H](O)[C@H](O)[C@H]1O", "note": "[Crocin, di-gentiobiose ester of crocetin]", "values": [{"measurement": "activity at 500 µg/mL", "setting": "[3]", "value": 52.7, "unit": "%"}, {"measurement": "inhibition at 500 µg/mL", "setting": "[3]", "value": 47.3, "unit": "%"}, {"measurement": "solubility in water", "setting": "[5]", "value": "very good water-solubility"}]}, {"compound": "CCOC(=O)CCC(=O)O", "note": "[Monoester]", "values": [{"measurement": "solubility in water", "setting": "[6]", "value": "good solubility in water"}, {"measurement": "Inhibition of AChE activity %", "setting": "[3]; [8]", "value": 89.2, "unit": "%"}, {"measurement": "AChE activity %", "setting": "[3]; [9]", "value": 10.8, "unit": "%"}]}, {"compound": "neapolitanosyl-glucosyl-(trans)crocetin [NGTC]", "values": [{"measurement": "HPLC peaks in the cells", "setting": "[1]; time 0 min", "value": "not detected"}, {"measurement": "HPLC peaks in the cells", "setting": "[1]; time 30 min", "value": "not detected"}, {"measurement": "HPLC peaks in the cells", "setting": "[1]; time 60 min", "value": "not detected"}, {"measurement": "HPLC peaks in the cells", "setting": "[1]; time 120 min", "value": "not detected"}, {"measurement": "Area-% Fingerprint of test solution after 120 minutes", "setting": "[2]; [7]", "value": 17.9, "unit": "Area-%"}, {"measurement": "Area-% Fingerprint of test solution prior to incubation", "setting": "[2]; prior to incubation", "value": 18.1, "unit": "Area-%"}]}]}
